For orientation: IC50 means the concentration at which inhibition is half-maximal. A high value points to lower potency.

Structures are written as SMILES.

The test system of assay [1] is cellular histone deacetylase enzymatic activity in Jurkat E6-1 cells. The assay can be described thus: Inhibition of cellular HDAC activity, Boc-Lys(Tfa)-AMC substrate (Cell Lys-TFA). The class given is cell-based. As to the method:
The potency of the compounds is quantified by measuring the cellular histone deacetylase enzymatic activity using the fluorogenic substrate, Boc-Lys(Tfa)-AMC. After penetration in Jurkat E6-1 cells, the substrate is deacetylated to Boc-Lys-AMC. After cell lysis and cleavage by trypsin, the fluorophore AMC is released from the deacetylated substrate only. The fluorescence of the sample is directly related to the histone deacetylase activity in the sample.
Jurkat E6.1 cells are cultured according to standard cell culture protocols in Jurkat E6.1 Growth Media (RPMI without phenol red, 10% FBS, 10 mM HEPES, and 1 mM Sodium Pyruvate). Jurkat E6.1 cells are counted using a Coulter Counter and resuspended in Jurkat E6.1 growth media at a concentration of 75,000 cells/35 μL. 35 μL or 75,000 cells is seeded into Greiner microtitre assay plates. The plates are then incubated at 37° C. and 5% CO2 while other assay components are being prepared.
Stocks of 70 μL aliquots of the 10 mM compound in DMSO are prepared and stored at −20° C. From one stock aliquot of each compound to be tested and the reference compound, a 16-point serial dilution is prepared according to Table 1 using a 125 μL 16-channel Matrix multi-channel pipette.
2 μL (200×) of each diluted solution and each control (full activity: 100% DMSO alone or full inhibition 1 mM) is stamped into V-bottom polypropylene 384-well compound plates using either the Bravo, Janus, or 12.5 μL 16-channel Matrix multi-channel pipette. Each well with the 200× compound solution is diluted 1:20 by the addition of 38 μL Jurkat assay buffer+DMSO (9.5% DMSO, RPMI without phenol red, 0.09% FBS, 9 mM Hepes, and 0.9 mM Sodium Pyruvate equilibrated to room temperature)
5× (500 μM) substrate is prepared just prior to the addition to the assay. The 5× substrate is prepared by diluting a 100 mM Boc-Lys(Tfa)-AMC in DMSO solution 1:200 by adding it drop-wise to Jurkat assay medium (RPMI without phenol red, 0.1% FBS, 10 mM Hepes, and 1 mM Sodium Pyruvate equilibrated to 37° C.) while vortexing at slow speed to prevent precipitation.
10 mL of 3× lysis buffer is prepared with 8.8 ml of 3× stock lysis buffer (50 mM Tris-HCl, pH 8.0, 137 mM NaCl, 2.7 mM KCl, 1 mM MgCl2, 1% Nonidet P40 Substitute equilibrated to room temperature) and 1.2 mL of 3 mg/mL Trypsin equilibrated to room temperature.
5 μL of each solution of 1:20 diluted compound from above is transferred to the Greiner microtitre assay plates with 75,000 cells/well using the Bravo. Cells are then incubated for 2 hours at 37° C. and 5% CO2. […] The cells are then incubated for 3 hours at 37° C. and 5% CO2. Next, 25 μL of 3× lysis buffer is added to each well using either the 125 μL 16 channel pipette or the Bravo. The assay plate is then incubated overnight (15-16 hours) at 37° C. and 5% CO2. The following day, the plates are shaken on an orbital shaker for 1 minute at 900 rpm. Finally the top read fluorescence (Excitation: 355 nm, Emission: 460 nm) is measured using PerkinElmer EnVision.

Assay [2] has as its system cellular histone deacetylase activity (Lys-Ac). The assay can be described thus: Inhibition of cellular HDAC activity (Cell Lys-Ac). It counts as cell-based. The conditions noted are these: Lys-Ac substrate.
Assay [3] has as its target Histone Deacetylase 4 (HDAC4) catalytic domain (Homo sapiens (Human), UniProt P56524). Kind of assay: Biochemical HDAC inhibition assay, fluorogenic substrate Boc-Lys(Tfa)-AMC. On the procedure: The potency of compounds is quantified by measuring the Histone Deacetylase 4 (HDAC4) catalytic domain enzymatic activity using the fluorogenic substrate, Boc-Lys(Tfa)-AMC. The substrate is deacetylated to Boc-Lys-AMC by HDAC4. Cleavage by trypsin results in the release of the fluorophore AMC from the deacetylated substrate. The fluorescence of the sample is directly related to the histone deacetylase activity in the sample.
Stocks of 60 μL aliquots of the 10 mM compound in DMSO are prepared and stored at −20° C. From one stock aliquot of each compound to be tested and the reference compound, a 16-point serial dilution is prepared according to Table 1 using a 125 μL 16-channel Matrix multi-channel pipette (Matrix Technologies Ltd).
2 μL (200×) of each diluted solution and each control (full activity: 100% DMSO alone or full inhibition 1 mM) is stamped into V-bottomed polypropylene 384-well compound plates using either the Bravo (384-well head from Agilent) or 12.5 μL 16-channel Matrix multi-channel pipette (Matrix Technologies Ltd). Each well with the 200× compound solution is diluted 1:20 by the addition of 38 μL assay buffer+DMSO (10.5% DMSO, 45 mM Tris-HCl, 123 mM NaCl, 2.4 mM KCl, and 0.9 mM MgCl2 at pH 8.0 and equilibrated to room temperature).
The HDAC4 catalytic domain enzyme is human catalytic domain HDAC4 protein (amino acids 648-1032) with a C-terminal 6× histidine tag, produced by BioFocus. A working solution of enzyme is prepared from a 500 μg/mL stock aliquot of HDAC4 catalytic domain (thawed on ice) diluted to 0.2 μg/mL with assay buffer (50 mM Tris-HCl, 137 mM NaCl, 2.7 mM KCl, and 1 mM MgCl2 at pH 8 and equilibrated to room temperature) just prior to the addition of the enzyme to the assay.
5× (50 μM) substrate is prepared just prior to the addition to the assay. A 1 mM substrate stock is made by diluting a 100 mM Boc-Lys(Tfa)-AMC in DMSO solution 1:100 by adding it drop-wise to assay buffer (equilibrated to room temperature) while vortexing at slow speed to prevent precipitation. The 5× substrate is prepared by diluting the 1 mM substrate solution 1:20 by adding it drop-wise to assay buffer (equilibrated to room temperature) while vortexing at slow speed to prevent precipitation.
3× (30 μM) Developer/Stop Solution is prepared just prior to addition to the plate by diluting a stock solution of 10 mM reference compound 1:333 in 25 mg/mL trypsin (PAA Laboratories Ltd.) equilibrated to room temperature.
5 μL of each solution of 1:20 diluted compound from above is transferred to a clear bottomed, black, 384-well assay plate using the Bravo or the Janus (384-well MDT head from Perkin Elmer). Using a 16-channel Matrix multi-channel pipette, 35 μL of the working solution of HDAC4 catalytic domain enzyme (0.2 μg/mL in assay buffer) is transferred to the assay plate. […] The assay plate is then shaken for two minutes on an orbital shaker at 900 rpm (rotations per minute). Next the plate is incubated for 15 minutes at 37° C. The reaction is stopped by adding 25 μL of 3× (30 μM) developer/stop solution to the assay plates using either the Bravo, Janus or a 16-channel Matrix multi-channel pipette. Assay plates are then shaken for 5 minutes on an orbital shaker at 1200 rpm. Next, the assay plates are incubated at 37° C. for 1 hour in a tissue culture incubator. Finally, the fluorescence is measured (Excitation: 355 nm, Emission: 460 nm) using PerkinElmer EnVision in top read mode.

Setting [4] is: Homo sapiens, Jurkat E6.1, Lys-TFA substrate.

Histone Deacetylase 4 (HDAC4) catalytic domain, sequence (P56524 648-1032): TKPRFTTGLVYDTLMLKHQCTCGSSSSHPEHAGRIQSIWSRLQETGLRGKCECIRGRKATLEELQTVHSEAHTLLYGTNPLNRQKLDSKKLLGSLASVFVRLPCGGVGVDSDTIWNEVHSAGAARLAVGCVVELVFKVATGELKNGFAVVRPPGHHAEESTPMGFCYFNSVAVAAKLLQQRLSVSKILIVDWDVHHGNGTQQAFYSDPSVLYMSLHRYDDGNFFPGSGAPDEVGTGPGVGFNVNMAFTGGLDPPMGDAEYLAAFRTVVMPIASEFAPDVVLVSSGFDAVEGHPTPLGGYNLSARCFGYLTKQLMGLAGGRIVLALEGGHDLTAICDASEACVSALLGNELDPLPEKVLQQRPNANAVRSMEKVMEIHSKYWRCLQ

`Cc1c(F)cccc1[C@]1(C(=O)NO)Cc2cnn(-c3cccc(Cl)c3)c2C1` [Example 4, (S)-1-(3-Chlorophenyl)-5-(3-fluoro-2-methylphenyl)-N-hydroxy-1,4,5,6-tetrahydrocyclopenta[c]pyrazole-5-carboxamide]: the IC50 in assay [1] (setting [4]) is 72 nM; in assay [2], above 50000 nM; in assay [3], 61 nM.

As for `Cc1c(F)cccc1[C@]1(C(=O)NO)Cc2cnn(-c3cccc(Cl)c3F)c2C1` [Example 10, (S)-1-(3-Chloro-2-fluorophenyl)-5-(3-fluoro-2-methylphenyl)-N-hydroxy-1,4,5,6-tetrahydrocyclopenta[c]pyrazole-5-carboxamide], the IC50 in assay [1] (setting [4]) is 17 nM; in assay [2] it was above 50000 nM; in assay [3] it was 17 nM.

For the compound `Cc1c(F)cccc1[C@]1(C(=O)NO)Cc2cnn(-c3ccccc3)c2C1` [Example 1, (S)-5-(3-Fluoro-2-methylphenyl)-N-hydroxy-1-phenyl-1,4,5,6-tetrahydrocyclopenta[c]pyrazole-5-carboxamide], the IC50 in assay [1] (setting [4]) is 59 nM; in assay [2], above 50000 nM; in assay [3] it was 28 nM.

Consider `Cc1c(F)cccc1[C@]1(C(=O)NO)Cc2cnn(-c3cnccn3)c2C1` [Example 19, (S)-5-(3-Fluoro-2-methylphenyl)-N-hydroxy-1-(pyrazin-2-yl)-1,4,5,6-tetrahydrocyclopenta[c]pyrazole-5-carboxamide], for which the values for the 50% inhibitory concentration (IC50) in assay [1] (setting [4]), in assay [2] and in assay [3] were 53 nM, above 50000 nM and 38 nM, respectively.

For `Cc1cc(F)ccc1-c1nc2c(s1)CC(C(=O)NO)(c1cccc(F)c1C)C2` (single isomer, unassigned) [Example 74, E1-(abs)-5-(3-Fluoro-2-methylphenyl)-2-(4-fluoro-2-methylphenyl)-N-hydroxy-5,6-dihydro-4H-cyclopenta[d]thiazole-5-carboxamide], the results for the 50% inhibitory concentration (IC50) in assay [1] (Lys-TFA substrate), in assay [2] and in assay [3] were 540 nM, above 50000 nM and 780 nM, respectively.

`Cc1c(F)cccc1[C@]1(C(=O)NO)Cc2cnn(-c3ccc(F)cc3)c2C1` [Example 5, (S)-5-(3-Fluoro-2-methylphenyl)-1-(4-fluorophenyl)-N-hydroxy-1,4,5,6-tetrahydrocyclopenta[c]pyrazole-5-carboxamide]: the IC50 in assay [1] (setting [4]) was 99 nM; in assay [2], above 50000 nM; in assay [3], 53 nM.

For the compound `Cc1c(F)cccc1[C@]1(C(=O)NO)Cc2nn(C)c(-c3ccc(F)cc3)c2C1` [Example 79, (R)-5-(3-Fluoro-2-methylphenyl)-3-(4-fluorophenyl)-N-hydroxy-2-methyl-2,4,5,6-tetrahydrocyclopenta[c]pyrazole-5-carboxamide], the IC50 in assay [1] (setting [4]) came to 26 nM; in assay [2], 36500 nM; in assay [3], 53 nM.

With `Cc1c(F)cccc1C1(C(=O)NO)Cc2nc(Cc3cccc(C(F)(F)F)c3)sc2C1` (stereo not drawn) [Example 63, 5-(3-Fluoro-2-methylphenyl)-N-hydroxy-2-(3-(trifluoromethyl)benzyl)-5,6-dihydro-4H-cyclopenta[d]thiazole-5-carboxamide], the IC50 in assay [1] (setting [4]) was 38 nM; in assay [2] it was above 50000 nM; in assay [3], 490 nM.

With `Cc1c(F)cccc1C1(C(=O)NO)CCc2nc(-c3cncnc3)sc2C1` (stereo not drawn) [Example 43, 6-(3-Fluoro-2-methylphenyl)-N-hydroxy-2-(pyrimidin-5-yl)-4,5,6,7-tetrahydrobenzo[d]thiazole-6-carboxamide], the 50% inhibitory concentration (IC50) in assay [1] (setting [4]) was 660 nM; in assay [2] it was above 50000 nM; in assay [3] it was 1900 nM.

Regarding `Cc1c(F)cccc1[C@]1(C(=O)NO)Cc2cnn(-c3c(F)cccc3Cl)c2C1` [Example 14, (S)-1-(2-Chloro-6-fluorophenyl)-5-(3-fluoro-2-methylphenyl)-N-hydroxy-1,4,5,6-tetrahydrocyclopenta[c]pyrazole-5-carboxamide], the figures for the IC50 in assay [1] (setting [4]), in assay [2] and in assay [3] were 11 nM, above 50000 nM and 15 nM, respectively.

Regarding `Cc1c(F)cccc1[C@@]1(C(=O)NO)Cc2cnn(-c3ccccc3)c2C1` [Example 30, (R)-5-(3-Fluoro-2-methylphenyl)-N-hydroxy-1-phenyl-1,4,5,6-tetrahydrocyclopenta[c]pyrazole-5-carboxamide], the IC50 in assay [1] (setting [4]) was 1700 nM; in assay [2] it was above 50000 nM; in assay [3] it was 1000 nM.

On to `Cc1cc(F)ccc1-c1nc2c(s1)CC(C(=O)NO)(c1cccc(F)c1C)C2` (single isomer, unassigned) [Example 75, E2-(abs)-5-(3-Fluoro-2-methylphenyl)-2-(4-fluoro-2-methylphenyl)-N-hydroxy-5,6-dihydro-4H-cyclopenta[d]thiazole-5-carboxamide], for which the IC50 was 51 nM in assay [1] (Lys-TFA substrate), above 50000 nM in assay [2] and 270 nM in assay [3].

As for `Cc1c(F)cccc1C1(C(=O)NO)CCc2ncncc2C1` (stereo not drawn) [Example 45, 6-(3-Fluoro-2-methylphenyl)-N-hydroxy-5,6,7,8-tetrahydroquinazoline-6-carboxamide], the 50% inhibitory concentration (IC50) in assay [1] (setting [4]) is 2600 nM; in assay [2], above 50000 nM; in assay [3], 3700 nM.

Regarding `Cc1c(F)cccc1[C@]1(C(=O)NO)Cc2cn(-c3ncccc3Cl)nc2C1` [Example 28, (S)-2-(3-Chloropyridin-2-yl)-5-(3-fluoro-2-methylphenyl)-N-hydroxy-2,4,5,6-tetrahydrocyclopenta[c]pyrazole-5-carboxamide], the IC50 in assay [1] (setting [4]) was 69 nM; in assay [2], above 50000 nM; in assay [3] it was 65 nM.

Values taken from patent publication US10065948B2, “Histone deacetylase inhibitors and compositions and methods of use thereof” (CHDI Foundation, Inc., priority 2014, dated 2018).
